# From US11802111B2, “Cyclobutyl amide monoacylglycerol lipase modulators” (Janssen Pharmaceutica NV, priority 2020, dated 2023)
# pIC50: −log10 of the molar value.
# Target: human MGL from HeLa cells (Homo sapiens (Human), UniProt Q99685)
# Experiment: MGL in vitro activity assay ([glycerol-1,3-3H]-oleoyl glycerol hydrolysis, activated carbon filtration)
# Format: biochemical
# Details: 300 nM [Glycerol-1,3-3H]-oleoyl glycerol, one hour
# Outline: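 Activity measured as tritium in the flow-through after activated carbon filtration of a 1 h reaction containing 300 nM 3H-oleoyl glycerol, compound and HeLa-derived human MGL. Compounds screened at 10 μM; IC50 series start at an empirically chosen highest concentration.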
# human MGL from HeLa cells, sequence (Q99685 whole entry): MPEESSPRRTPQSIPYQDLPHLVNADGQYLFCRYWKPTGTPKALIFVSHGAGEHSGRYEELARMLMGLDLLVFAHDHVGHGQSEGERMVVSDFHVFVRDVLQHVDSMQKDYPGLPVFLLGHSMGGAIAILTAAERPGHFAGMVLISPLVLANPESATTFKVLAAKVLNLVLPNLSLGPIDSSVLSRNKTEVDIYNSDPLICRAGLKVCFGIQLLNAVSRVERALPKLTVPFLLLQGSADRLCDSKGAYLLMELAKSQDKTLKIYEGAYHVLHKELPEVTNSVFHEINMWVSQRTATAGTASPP
row,SMILES,pIC50
1,"Cc1ccc(Cl)c(OC2CCC3(CC2)CN(C(=O)[C@H]2C[C@@](C)(O)C2)C3)c1 [Example 410, (7-(2-Chloro-5-methylphenoxy)-2-azaspiro[3.5]nonan-2-yl)((1s,3s)-3-hydroxy-3-methylcyclobutyl)methanone]",8.55
2,"Cc1ccc(OC2CCC3(CC2)CN(C(=O)[C@H]2C[C@@](C)(O)C2)C3)cc1Cl [Example 411, (7-(3-Chloro-4-methylphenoxy)-2-azaspiro[3.5]nonan-2-yl)((1s,3s)-3-hydroxy-3-methylcyclobutyl)methanone]",8.04
3,"Cc1cc(Cl)ccc1OC1CCC2(CC1)CN(C(=O)[C@H]1C[C@@](C)(O)C1)C2 [Example 412, (7-(4-Chloro-2-methylphenoxy)-2-azaspiro[3.5]nonan-2-yl)((1s,3s)-3-hydroxy-3-methylcyclobutyl)methanone]",8.85
4,"COc1cc(OC2CCC3(CC2)CN(C(=O)[C@H]2C[C@@](C)(O)C2)C3)ccc1Cl [Example 414, (7-(4-Chloro-3-methoxyphenoxy)-2-azaspiro[3.5]nonan-2-yl)((1s,3s)-3-hydroxy-3-methylcyclobutyl)methanone]",7.82
5,"C[C@]1(O)C[C@@H](C(=O)N2CC3(CCC(Oc4ccc(C5CC5)c(F)c4)CC3)C2)C1 [Example 415, (7-(4-Cyclopropyl-3-fluorophenoxy)-2-azaspiro[3.5]nonan-2-yl)((1s,3s)-3-hydroxy-3-methylcyclobutyl)methanone]",8.48
6,"Cc1ccc(C(F)(F)F)cc1OC1CCC2(CC1)CN(C(=O)[C@H]1C[C@@](C)(O)C1)C2 [Example 416, ((1s,3s)-3-Hydroxy-3-methylcyclobutyl)(7-(2-methyl-5-(trifluoromethyl)phenoxy)-2-azaspiro[3.5]nonan-2-yl)methanone]",8.72
7,"CC1(Oc2ccc(C(F)(F)F)cn2)CCC2(CC1)CN(C(=O)[C@H]1C[C@@](C)(O)C1)C2 [Example 419, ((1s,3s)-3-Hydroxy-3-methylcyclobutyl)(7-methyl-7-((5-(trifluoromethyl)pyridin-2-yl)oxy)-2-azaspiro[3.5]nonan-2-yl)methanone]",7.92
8,"CC(F)(F)c1ccc(OC2CCC3(CC2)CN(C(=O)[C@H]2C[C@@](C)(O)C2)C3)nc1 [Example 422, (7-((5-(1,1-Difluoroethyl)pyridin-2-yl)oxy)-2-azaspiro[3.5]nonan-2-yl)((1s,3s)-3-hydroxy-3-methylcyclobutyl)methanone]",7.62
9,"C[C@]1(O)C[C@@H](C(=O)N2CC3(CCC(Oc4ccc(C(F)F)cn4)CC3)C2)C1 [Example 423, (7-((5-(Difluoromethyl)pyridin-2-yl)oxy)-2-azaspiro[3.5]nonan-2-yl)((1s,3s)-3-hydroxy-3-methylcyclobutyl)methanone]",6.73
10,"C[C@]1(O)C[C@@H](C(=O)N2CC3(CCC(Oc4ccc(C5CC5)cn4)CC3)C2)C1 [Example 426, (7-((5-Cyclopropylpyridin-2-yl)oxy)-2-azaspiro[3.5]nonan-2-yl)((1s,3s)-3-hydroxy-3-methylcyclobutyl)methanone]",7.70
11,"C[C@]1(O)C[C@@H](C(=O)N2CC3(CCC(Oc4ccc(OC(F)(F)F)cn4)CC3)C2)C1 [Example 427, ((1s,3s)-3-Hydroxy-3-methylcyclobutyl)(7-((5-(trifluoromethoxy)pyridin-2-yl)oxy)-2-azaspiro[3.5]nonan-2-yl)methanone]",7.55
12,"Cc1ccc(OC2CCC3(CC2)CN(C(=O)[C@H]2C[C@@](C)(O)C2)C3)nc1C [Example 428, (7-((5,6-Dimethylpyridin-2-yl)oxy)-2-azaspiro[3.5]nonan-2-yl)((1s,3s)-3-hydroxy-3-methylcyclobutyl)methanone]",7.33
13,"Cc1ccc(C)c(OC2CCC3(CC2)CN(C(=O)[C@H]2C[C@@](C)(O)C2)C3)n1 [Example 429, (7-((3,6-Dimethylpyridin-2-yl)oxy)-2-azaspiro[3.5]nonan-2-yl)((1s,3 s)-3-hydroxy-3-methylcyclobutyl)methanone]",7.72
14,"Cc1ccc(F)c(OC2CCC3(CC2)CN(C(=O)[C@H]2C[C@@](C)(O)C2)C3)n1 [Example 431, (7-((3-Fluoro-6-methylpyridin-2-yl)oxy)-2-azaspiro[3.5]nonan-2-yl)((1s,3s)-3-hydroxy-3-methylcyclobutyl)methanone]",7.01
15,"Cc1cnc(OC2CCC3(CC2)CN(C(=O)[C@H]2C[C@@](C)(O)C2)C3)c(F)c1 [Example 432, (7-((3-Fluoro-5-methylpyridin-2-yl)oxy)-2-azaspiro[3.5]nonan-2-yl)((1s,3s)-3-hydroxy-3-methylcyclobutyl)methanone]",7.15

# More lines, in order of rising pIC50, values ahead:
row,pIC50,SMILES
1,6.74,"C[C@]1(O)C[C@@H](C(=O)N2CC3(CCC(Oc4cc(C(F)(F)F)ccn4)CC3)C2)C1 [Example 418, ((1s,3s)-3-Hydroxy-3-methylcyclobutyl)(7-((4-(trifluoromethyl)pyridin-2-yl)oxy)-2-azaspiro[3.5]nonan-2-yl)methanone]"
2,7.00,"C[C@]1(O)C[C@@H](C(=O)N2CC3(CCC(Oc4ccc(C(F)(F)F)nc4)CC3)C2)C1 [Example 424, ((1s,3s)-3-Hydroxy-3-methylcyclobutyl)(7-((6-(trifluoromethyl)pyridin-3-yl)oxy)-2-azaspiro[3.5]nonan-2-yl)methanone]"
3,7.08,"C[C@]1(O)C[C@@H](C(=O)N2CC3(CCC(Oc4cccc(C(F)(F)F)n4)CC3)C2)C1 [Example 421, ((1s,3s)-3-Hydroxy-3-methylcyclobutyl)(7-((6-(trifluoromethyl)pyridin-2-yl)oxy)-2-azaspiro[3.5]nonan-2-yl)methanone]"
4,7.48,"CCC1(Oc2ccc(C(F)(F)F)cn2)CCC2(CC1)CN(C(=O)[C@H]1C[C@@](C)(O)C1)C2 [Example 420, (7-Ethyl-7-((5-(trifluoromethyl)pyridin-2-yl)oxy)-2-azaspiro[3.5]nonan-2-yl)((1s,3s)-3-hydroxy-3-methylcyclobutyl)methanone]"
5,7.54,"C[C@]1(O)C[C@@H](C(=O)N2CC3(CCC(Oc4ccc(C(F)(F)F)cn4)CC3)C2)C1 [Example 417, ((1s,3s)-3-Hydroxy-3-methylcyclobutyl)(7-((5-(trifluoromethyl)pyridin-2-yl)oxy)-2-azaspiro[3.5]nonan-2-yl)methanone]"
6,7.66,"Cc1c(Cl)cccc1OC1CCC2(CC1)CN(C(=O)[C@H]1C[C@@](C)(O)C1)C2 [Example 413, (7-(3-Chloro-2-methylphenoxy)-2-azaspiro[3.5]nonan-2-yl)((1s,3s)-3-hydroxy-3-methylcyclobutyl)methanone]"
7,7.85,"CCc1cnc(OC2CCC3(CC2)CN(C(=O)[C@H]2C[C@@](C)(O)C2)C3)c(F)c1 [Example 433, (7-((5-Ethyl-3-fluoropyridin-2-yl)oxy)-2-azaspiro[3.5]nonan-2-yl)((1s,3s)-3-hydroxy-3-methylcyclobutyl)methanone]"
8,7.92,"Cc1cnc(OC2CCC3(CC2)CN(C(=O)[C@H]2C[C@@](C)(O)C2)C3)c(C)c1 [Example 430, (7-((3,5-Dimethylpyridin-2-yl)oxy)-2-azaspiro[3.5]nonan-2-yl)((1s,3s)-3-hydroxy-3-methylcyclobutyl)methanone]"
9,8.11,"CC(C)(C)c1cccc(OC2CCC3(CC2)CN(C(=O)[C@H]2C[C@@](C)(O)C2)C3)n1 [Example 425, (7-((6-(tert-Butyl)pyridin-2-yl)oxy)-2-azaspiro[3.5]nonan-2-yl)((1s,3s)-3-hydroxy-3-methylcyclobutyl)methanone]"
